Measured values as given in patent publication US10246469B2, “Biaryl kinase inhibitors” (BRISTOL-MYERS SQUIBB COMPANY, priority 2015, dated 2019).

Biological target: T1, GST-Xa-hAAK1 (Homo sapiens, UniProt Q2M2I8)
T1 construct: GST (N); Factor Xa cleavage site (Xa) (internal); made in house
Assay: AAK1 Kinase Assay
Format: biochemical
Settings: bacterially expressed GST-Xa-hAAK1 3.5 nM; ATP 22 μM; fluoresceinated peptide 1.5 μM; 3 hours at room temperature; Caliper LabChip 3000
Outline: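 Bacterially expressed GST-Xa-hAAK1 (3.5 nM) phosphorylated 1.5 μM 5-FAM peptide with 22 μM ATP in Tris pH 7.4, MgCl2, DTT, 1.6% DMSO, 3 h at room temperature. EDTA-stopped; product separated electrophoretically on Caliper LabChip. IC50 from eleven concentrations by non-linear regression.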

T1 sequence (Q2M2I8 whole entry): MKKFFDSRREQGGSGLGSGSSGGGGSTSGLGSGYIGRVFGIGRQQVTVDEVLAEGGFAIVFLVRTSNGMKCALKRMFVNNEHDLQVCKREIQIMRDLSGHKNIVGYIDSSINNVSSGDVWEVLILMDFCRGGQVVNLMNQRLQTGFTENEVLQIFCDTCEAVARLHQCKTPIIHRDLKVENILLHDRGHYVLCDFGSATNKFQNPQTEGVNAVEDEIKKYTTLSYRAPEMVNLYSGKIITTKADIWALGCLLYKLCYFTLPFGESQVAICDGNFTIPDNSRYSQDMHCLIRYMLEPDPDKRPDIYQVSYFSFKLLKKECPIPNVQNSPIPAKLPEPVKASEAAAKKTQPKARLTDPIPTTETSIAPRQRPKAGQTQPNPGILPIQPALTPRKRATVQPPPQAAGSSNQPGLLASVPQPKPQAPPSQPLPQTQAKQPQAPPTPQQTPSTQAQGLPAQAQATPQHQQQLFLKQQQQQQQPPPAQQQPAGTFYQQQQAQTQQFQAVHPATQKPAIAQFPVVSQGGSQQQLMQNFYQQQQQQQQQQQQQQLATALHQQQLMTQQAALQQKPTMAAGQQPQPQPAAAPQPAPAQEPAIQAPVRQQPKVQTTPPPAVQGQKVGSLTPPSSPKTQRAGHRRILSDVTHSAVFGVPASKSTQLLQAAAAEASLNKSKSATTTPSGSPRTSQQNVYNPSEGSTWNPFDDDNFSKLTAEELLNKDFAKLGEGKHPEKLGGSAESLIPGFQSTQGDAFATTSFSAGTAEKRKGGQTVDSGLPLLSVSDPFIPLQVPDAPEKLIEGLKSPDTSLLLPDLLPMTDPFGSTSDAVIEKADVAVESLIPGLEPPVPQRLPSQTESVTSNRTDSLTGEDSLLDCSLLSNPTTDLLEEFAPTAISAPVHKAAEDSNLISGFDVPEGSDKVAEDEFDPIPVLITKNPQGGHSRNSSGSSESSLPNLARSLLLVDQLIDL

Structure (SMILES) | IC50 [nM]
Cc1cc(-c2ccnn3cc(C(F)(F)F)nc23)ccc1OC[C@@](C)(N)CC(C)C [Example 500, (S)-2,4-dimethyl-1-(2-methyl-4-(2-(trifluoromethyl)imidazo[1,2-b]pyridazin-8-yl)phenoxy)pentan-2-amine] | 30
CC(C)C[C@](C)(N)COc1ccc(-c2ccnn3cc(C(F)(F)F)nc23)cc1 [Example 501, (S)-2,4-dimethyl-1-(4-(2-(trifluoromethyl)imidazo[1,2-b]pyridazin-8-yl)phenoxy)pentan-2-amine] | 69
Cc1cc(-c2cnc3cccnn23)ccc1OC[C@@](C)(N)CC(C)C [Example 502, (S)-1-(4-(imidazo[1,2-b]pyridazin-3-yl)-2-methylphenoxy)-2,4-dimethylpentan-2-amine] | 144
CC(C)C[C@](C)(N)COc1ccc(-c2cnc3cccnn23)cc1Cl [Example 503, (S)-1-(2-chloro-4-(imidazo [1,2-b]pyridazin-3-yl)phenoxy)-2,4-dimethylpentan-2-amine] | 62
Cc1cc(-c2ccnn3cc(C(F)(F)F)nc23)cnc1OC[C@](C)(N)CC(C)C [Example 504, (R)-2,4-dimethyl-1-((3-methyl-5-(2-(trifluoromethyl)imidazo[1,2-b]pyridazin-8-yl)pyridin-2-yl)oxy)pentan-2-amine] | 606
CC(C)C[C@](C)(N)COc1ccc(-c2cc(=O)[nH]cn2)cc1Cl [Example 509, (S)-6-(4-((2-amino-2,4-dimethylpentyl)oxy)-3-chlorophenyl)pyrimidin-4(3H)-one] | 6.1
